Data from patent US20110165173A1, “THERAPEUTIC AGENT AND DETECTION REAGENT FOR ARTERIOSCLEROTIC DISEASE WHICH TARGETS FOR SALUSIN” (PROTEINEXPRESS CO., LTD., priority 2007, published 2011).

System: ACAT-1 protein expression
Experiment: ACAT-1 protein expression in human monocyte-derived macrophages during differentiation (Western blotting)
Type: cell-based
Settings: for ACAT-1 protein expression vs control cells: 0.6 nM
Procedure: In the Examples below, monocytes were prepared from human peripheral blood and cultured for 7 days so as to have differentiated into macrophages. At such time, salusin-α (0 to 10 nM) and salusin-β (0 to 10 nM) were simultaneously added thereto, and the effects of salusin were examined.
Culture of monocytes obtained from human peripheral blood was performed by a known method. Isolated monocytes were cultured with the addition of RPMI-1640 (15 mL) and then the floating monocytes were subjected to cell counting with a blood cell counting chamber. The cells were seeded on a 6-cm dish so as to result in 4×10^6 cells/2 mL. The monocytes were kept warm at 37° C. in the presence of 5% CO2 for 1 hour such that the cells were allowed to adhere to the dish. The medium was substituted with RPMI-1640 containing 10% human serum, followed by culture for 7 days. The medium was changed every 3 days.
ACAT-1 is an endoplasmic reticulum enzyme that converts intracellular free cholesterol into cholesterol ester. The ACAT-1 gene is important for foaming of macrophages. In order to examine effects of salusin-α and salusin-β on the ACAT-1 expression, the ACAT-1 protein expression was examined by Western blotting.
Monocyte-derived macrophages that had been cultured for 7 days were washed with PBS 3 times, followed by solubilization with the addition of 10% SDS (sodium dodecyl sulfate) (100 μL) to each dish. Each cell extraction solution was scooped up with a cell scraper, followed by pulverization with the use of a 1-mL TERUMO syringe and a 23-G injection needle for fragmentation (shearing). The resultant was centrifuged at 15,000 rpm for 3 minutes (Himac CF15D2 high-speed micro refrigerated centrifuge; Hitach, Ltd.). The supernatant protein concentration was assayed by the bicinchoninic acid (BCA) method (Pierce) and used as a cell extraction solution for Western blotting.
For ACAT-1 protein detection, an anti-human ACAT-1 polyclonal antibody (DM10 donated from Dr. Chang, Dartmouth Medical School) [Chang CCY et al., J Biol Chem. 1995; 270: 29532-29540] prepared by immunizing a rabbit was used as a primary antibody (final concentration: 0.5 μg/mL) for a reaction on a transfer membrane at room temperature for 1 hour. The transfer membrane was washed with PBS-0.1% Tween 20, followed by a reaction with a secondary antibody (anti-rabbit IgG antibody: anti-rabbit IgG donkey antibody conjugated with horseradish peroxidase (HRP) (GE Healthcare Bio-Science)) at room temperature for 1 hour. For a secondary antibody, a stock solution (0.5 μL) was diluted 10,000-fold with PBS-0.1% Tween 20 (5 mL), and the resultant was used. Washing was carried out with PBS-0.1% Tween 20, followed by ACAT-1 protein detection with the use of Lumi-Light Plus (PerkinElmer Life Sciences).
Human peripheral blood monocytes (4×10^6 cells/6-cm dish) were cultured for 7 days in an RPMI-1640 medium (2 mL) containing 10% human serum so as to differentiate into macrophages. In order to examine the salusin dose-dependent effects on the ACAT-1 protein expression, salusin-α or salusin-β was added to the medium at a concentration of 0, 0.2, 0.4, 0.6, 0.8, or 1.0 nM at the beginning of culture. On Day 7 of culture, macrophage cells differentiated from monocytes were washed with PBS and then solubilized in 10% SDS (100 μL), followed by Western blotting with the use of an ACAT-1-specific antibody. […]

salusin-α: peptide (SEQ ID NO: 1) comprising 28 amino acid residues, generated by processing from preprosalusin (SGALPPAPAAPRPALRAQRAGPAGPGAK; listed as Homo sapiens)
inhibition of ACAT-1 protein expression (0 to 1.0 nM added at beginning of 7-day culture, concentration-dependent): approximately 40% | ACAT-1 protein expression vs control cells (Day 1, 3, or 5 after seeding): not found to significantly differ | ACAT-1 protein expression vs control cells (Day 7): significantly inhibited

salusin-β: peptide (SEQ ID NO: 3) comprising 20 amino acid residues, generated by processing from preprosalusin (AIFIFIRWLLKLGHHGRAPP; listed as Homo sapiens) [reference compound]
ACAT-1 protein expression level relative to control (0.6 nM (peak level), added at beginning of 7-day culture, attenuated above 0.6 nM): 2.1 times | ACAT-1 protein expression vs control cells (Day 5 or later): significantly increased
